Experimental findings from US8518978B2, “Pharmaceutical composition for prevention and treatment of restenosis comprising isoxazole derivatives” (SK Biopharmaceuticals Co., Ltd., priority 2007, dated 2013) are described below.

For test [1], the system named is HUVEC (human umbrical vein endothelial cell). The test is described as follows: Test of endothelial cell proliferation (cell count). The class given is cell-based. To be noted: for endothelial cell proliferation: drug alone, increasing concentration, two days, cell count (FIGS. 5, 8 to 10). On the procedure: An HUVEC (human umbrical vein endothelial cell, Cambrex, US) cell line at 3-10 passages was incubated in an EGM2 (endothelial growth medium, Cambrex, US) culture medium under a standard culture condition (O2 95%, 5% CO2, 37° C., 100% RH). 1×10^4 Cells was divided into a 24-well plate, and cultured for a day so that the cells can be fixed into the 24-well plate. In order to allow the cells to enter interphase, the cells were washed three times with PBS, and the EGM2 culture medium was replaced by EBM2 (endothelial basal medium, Cambrex) including 1% fetal bovine serum and 1% antibiotic-antimycotic (Gibco, US), and the cells were incubated for a day. After the used medium was removed, an EBM2 including 1% fetal bovine serum and 1% antibiotic-antimycotic (Gibco) solution supplemented with a drug was added to the cells, and the cell solution was then cultured for two days. After the cell culture, morphology of the cells was observed under a microscope. Then, the cells were detached from the plate using trypsin, and counted using a hemacytometer. 0.1% DMSO dissolved in saline was used as the vehicle control.

In test [2] the test system is pig coronary stent model. Description: Re-endothelization in pig coronary stent model (vWF staining). The format is in vivo. As for the experimental part: All pigs receiving a surgical operation were treated with an antithrombotic agent ‘clopidogrel’ (35 mg/day) and aspirin (100 mg/day) before one week of the surgical operation. Pigs weighed 30 to 40 kg were anesthetized with ketamine (20 mg/kg IM) and xylazine (2 mg/kg IM), and their aesthesia was maintained by connecting an infusion set to their ear veins and allowing a ketamine/xylazine solution (ketamin 50 g+xylazine 10 g/500 ml saline) to flow in the ear veins according to the aesthesia state. Pig surgery regions were shaved, sterilized with betadine. Skin on the neck was cut by approximately 5 cm, and a pig carotid artery was found using a mosquito, and 1 ml of heparin (5,000 IU) was administered to pigs. Angiocardiography was performed using a SIREMOBIL 245B angiocardiographer (commercially available from Siemens). A stent (diameter: 3.0 mm; length: 15 mm) was used for surgical operation on LAD, RAD and RCX by expanding the stent at a ratio 1.3:1 of stent:vein diameter, and a position of stent transplantation was previously determined using the imaging system. […]
In order to observe a re-endothelization level by a drug, a tissue section slide of pig blood vessel was reacted at 4° C. with vWF (von willebrand factor, DakoCytomation, US) Ab that stains endothelial cells of mice. […] The tissue section slide was observed and photographed under a fluorescence microscope.

Test [3] relates to SMC (rat aortic smooth muscle cell). The test is described as follows: Test of vascular smooth muscle cell proliferation (cell count). The class given is cell-based. As for the experimental part:
An SMC (rat aortic smooth muscle cell) cell line at 3-10 passages was incubated in a culture medium of SmGM (Smooth muscle cell growth medium, Cambrex) including 5% fetal bovine serum and 1% antibiotic antimycotic reagent (Gibco, US) under a standard culture condition ([…], 5% CO2, 37° C., 100% RH). 2×10^4 Cells were divided into a 24-well plate, and cultured for a day so that the cells can be fixed into the 24-well plate. The cells were washed three times with PBS, put into a solution of SmGM including 5% fetal bovine serum and 1% antibiotic-antimycotic (Gibco), and then incubated for a day. After the used medium was removed, an SmGM including 5% fetal bovine serum solution supplemented with a corresponding drug was added to the cells, and the cell solution was then cultured for two days. After the cell culture, morphology of the cells was observed under a microscope. Then, the cells were detached from the plate using trypsin, and counted using a hemacytometer. 0.1% DMSO dissolved in saline was used as the vehicle control.

Test [4] relates to rat carotid artery injury model. The test is described as follows: Re-endothelization in rat carotid artery injury model (vWF staining). The class given is in vivo. The text has this:
(§1) White rats weighed 350 to 400 g were anesthetized with ketamine and xylene, and their surgery regions were shaved and sterilized with betadine. Skin on the neck region was cut by about 2 cm, and a rat carotid artery was found using a mosquito. A blood flow was prevented by hanging a thread on the carotid artery and an internal carotid artery, followed by tying an external carotid artery with a thread. A 2F forgarty catheter (Baxter, US) was inserted into a blood vessel between the external carotid artery and the carotid artery to wound a carotid artery region three times. Then, the wounded carotid artery region was tied with a thread to allow a blood flow through the carotid artery and the internal carotid artery and prevent hemorrhage between the carotid artery and the external carotid artery, and the surgery region was closed with stitches. Each of rear neck skins were cut by approximately 1 cm, and an osmotic pump containing a drug is inserted into the blood vessel and closed with stitches. After 1 week to observe the endothelial cells and 2 weeks to observe the restenosis, all blood was extracted from each subject rat using a perfusion, carotid arteries were taken from the rats and their tissue slides were made to observe their section of blood vessel. […]

Test [5] deals with pig coronary stent model. The test is described as follows: Restenosis inhibition in pig coronary stent model. The class given is in vivo. On the procedure:
All pigs receiving a surgical operation were treated with an antithrombotic agent ‘clopidogrel’ (35 mg/day) and aspirin (100 mg/day) before one week of the surgical operation. Pigs weighed 30 to 40 kg were anesthetized with ketamine (20 mg/kg IM) and xylazine (2 mg/kg IM), and their aesthesia was maintained by connecting an infusion set to their ear veins and allowing a ketamine/xylazine solution (ketamin 50 g+xylazine 10 g/500 ml saline) to flow in the ear veins according to the aesthesia state. Pig surgery regions were shaved, sterilized with betadine. Skin on the neck was cut by approximately 5 cm, and a pig carotid artery was found using a mosquito, and 1 ml of heparin (5,000 IU) was administered to pigs. Angiocardiography was performed using a SIREMOBIL 245B angiocardiographer (commercially available from Siemens). A stent (diameter: 3.0 mm; length: 15 mm) was used for surgical operation on LAD, RAD and RCX by expanding the stent at a ratio 1.3:1 of stent:vein diameter, and a position of stent transplantation was previously determined using the imaging system.
After 28 days, pigs were intravenously injected with KCl (40 meq/l) under a conventional aesthesia condition to induce pig cardioplegia, and hearts were extracted pigs. […]

In test [6] the test system is rat carotid artery injury model. The test is described as follows: Restenosis inhibition in rat carotid artery injury model. The format is in vivo.
From the text: as §1

Where [7] appears, read: isoxazole derivative together with rapamycin, versus rapamycin alone (FIG. 6).

As for `O=C(NCCn1ccnc1)c1cc(-c2ccco2)on1` [Derivative 4, 5-furan-2-yl-isoxazole-3-carboxylic acid (2-imidazol-1-yl-ethyl)-amide], the endothelial cell proliferation entry in test [1] is recorded as “inhibit or maintain the proliferation of the endothelial cells”.
On to `O=C(NCCc1ccncc1)c1cc(-c2ccco2)on1` [Derivative 5, 5-furan-2-yl-isoxazole-3-carboxylic acid (2-pyridin-4-yl-ethyl)-amide], for which the endothelial cell proliferation result in test [1] is “increases or maintains the proliferation of HUVEC”. Moreover, in test [1] (isoxazole derivative together with paclitaxel, versus paclitaxel alone (FIG. 7)), the “endothelial cell proliferation, used together with paclitaxel” value is given as “recovered”. The “endothelial cell proliferation, used together with rapamycin” value in test [1] (setting [7]) is listed as “recovered”. For the same molecule, in the test on pig coronary stent model [2] (4 weeks, stent with rapamycin plus derivative 5 (FIG. 15)), the “re-endothelization on the damaged artery surface” value is recorded as “significantly recovered”. Also, the “cell number of vascular smooth muscle cells (VSMC)” value in test [3] (drug alone, increasing concentration, two days (FIG. 5)) was “reduced”. For the same molecule, in test [3] (setting [7]), the “vascular smooth muscle cell proliferation, used together with rapamycin” value is on record as “inhibited more significantly”. Further, in test [4] (200 μg/kg/day for two weeks, versus not administered (FIG. 12)), the “re-endothelization on damaged carotid artery surface” value is reported as “occurs more significantly”. Also, in test [4] (compound together with rapamycin versus compound only (FIG. 13)), the “re-endothelization, together with rapamycin” value is on record as “more significantly increased”. For the same molecule, the “lumen losses of blood vessel” value in the test on pig coronary stent model [5] (stent with 180 μg rapamycin plus 45, 90 or 180 μg derivative 5, 28 days, versus rapamycin-treated group (FIG. 14)) is recorded as “further reduced”. Also, the “restenotic area of the blood vessel” value in test [6] (200 μg/kg/day for two weeks by osmotic pump, versus not administered (FIG. 11)) is “more significantly reduced in size”. Besides, the “restenosis inhibition effect, together with rapamycin” value in test [6] (compound together with rapamycin versus compound only (FIG. 11, FIG. 13)) was “more significant restenosis inhibition effect”.
On to `O=C(NCCCn1cncn1)c1cc(-c2ccco2)on1` [Derivative 19, 5-furan-2-yl-isoxazole-3-carboxylic acid (3-[1,2,4]triazol-1-yl-propyl)-amide], for which, in test [1], the endothelial cell proliferation entry is “inhibit or maintain the proliferation of the endothelial cells”.
For the molecule `O=C(NCCCn1ccnc1)c1cc(-c2ccccc2)on1` [Derivative 23, 5-phenyl-isoxazole-3-carboxylic acid (3-imidazol-1-yl-propyl)-amide], in test [1], the endothelial cell proliferation entry was “inhibit or maintain the proliferation of the endothelial cells”.
Still for that read-out and setting: with `O=C(NCCCn1cncn1)c1cc(-c2ccc(F)cc2)on1` [Derivative 31, 5-(4-fluoro-phenyl)-isoxazole-3-carboxylic acid (3-[1,2,4]triazol-1-yl-propyl)-amide] the entry was “inhibit or maintain the proliferation of the endothelial cells”.
Same read-out and setting: with `O=C(NCCn1cncn1)c1cc(-c2ccc(F)cc2)on1` [Derivative 35, 5-(4-fluoro-phenyl)-isoxazole-3-carboxylic acid (2-[1,2,4]triazol-1-yl-ethyl)-amide] the entry was “inhibit or maintain the proliferation of the endothelial cells”; with `O=C(NCCCn1cncn1)c1cc(-c2cccs2)on1` [Derivative 50, 5-thiophen-2-yl-isoxazole-3-carboxylic acid (3-[1,2,4]-triazol-1-yl-propyl)-amide], “inhibit or maintain the proliferation of the endothelial cells”.
The same measure, in the same setting: with `O=C(NCCCn1cncn1)c1cc(-c2ccsc2)on1` [Derivative 62, 5-thiophen-3-yl-isoxazole-3-carboxylic acid (3-[1,2,4]-triazol-1-yl-propyl)-amide] the entry was “inhibit or maintain the proliferation of the endothelial cells”.
Take `O=C(NCCCn1ccnc1)c1cc(-c2ccsc2)on1` [Derivative 63, 5-thiophen-3-yl-isoxazole-3-carboxylic acid (3-imidazol-1-yl-propyl)-amide]: in test [1], the endothelial cell proliferation result was “inhibit or maintain the proliferation of the endothelial cells”.
Take `Cn1nnnc1SCCNC(=O)c1cc(-c2cccs2)on1` [Derivative 68, 5-thiophen-2-yl-isoxazole-3-carboxylic acid [2-(1-methyl-1H-tetrazol-5-yl-sulfanyl)-ethyl]-amide]: the endothelial cell proliferation result in test [1] is on record as “inhibit or maintain the proliferation of the endothelial cells”.
Still for that read-out and setting: with `O=C(NCCCSc1nnc[nH]1)c1cc(-c2cccs2)on1` [Derivative 69, 5-thiophen-2-yl-isoxazole-3-carboxylic acid [3-(4H-[1,2,4]triazol-3-yl-sulfanyl)-propyl]-amide] the entry was “inhibit or maintain the proliferation of the endothelial cells”.
Same read-out and setting: with `Cn1cnnc1S(=O)(=O)CCNC(=O)c1cc(-c2ccco2)on1` [Derivative 70, 5-furan-2-yl-isoxazole-3-carboxylic acid [2-(4-methyl-4H-[1,2,4]triazol-3-yl-sulfonyl)-ethyl]-amide] the entry was “inhibit or maintain the proliferation of the endothelial cells”; with `CC(=O)O[C@H]1C(=O)[C@@]2(C)[C@H]([C@H](OC(=O)c3ccccc3)[C@]3(O)C[C@H](OC(=O)[C@H](O)[C@@H](NC(=O)c4ccccc4)c4ccccc4)C(C)=C1C3(C)C)[C@]1(OC(C)=O)CO[C@@H]1C[C@@H]2O` [paclitaxel, reference compound], “inhibit the proliferation of HUVEC”.
Consider `CO[C@H]1C[C@@H]2CC[C@@H](C)[C@@](O)(O2)C(=O)C(=O)N2CCCC[C@H]2C(=O)O[C@H]([C@H](C)C[C@@H]2CC[C@@H](O)[C@H](OC)C2)CC(=O)[C@H](C)/C=C(\C)[C@@H](O)[C@@H](OC)C(=O)[C@H](C)C[C@H](C)/C=C/C=C/C=C/1C` [rapamycin, reference compound], for which the “re-endothelization rate (healing %)” value in the test with pig coronary stent model [2] (drug-containing PLGA stent, polymer-coated stent 80.2% (FIG. 15)) is 67.9%. Moreover, in the test on pig coronary stent model [5] (stent with PLGA polymer and drug, after 28 days, negative control 2.74 mm^2 (FIG. 14)), the “restenotic areas of blood vessels” value came out at 1.80 mm^2.
